# Reference: patent US12168673B2 (Mitopower, Inc., priority 2022, dated 2024)
# Where two headings read alike, the source gives them in different places.
# Tests used:
# [1] = Solid state stability (purity by UPLC); assay type: physicochemical
# Description: Compounds 100, 101 and 102 were kept in glass vials at three different locations at temperatures of […], 2-8° C. and −20° C. in order to assess solid state stability at room temperature, refrigerated conditions and in a deep freezer. The compounds from these vials were assessed for purity by UPLC at three different timepoints 0 hrs, 24 hrs and 48 hrs. Table 2 depicts the results obtained for solid state stability at 25° C., 2-8° C. and −20° C. respectively. Purity measurements were made at 0 hrs, 24 hours and 48 hours.
# [2] = Stability in solutions (pH range, simulated gastric fluid, simulated intestinal fluid); assay type: physicochemical
# Description: 1 mg/ml solutions of compound 100 were prepared in each buffer, diluted to 0.1 mg/ml in methanol at each time point and analyzed as follows: Gemini C-18, 250×4.6 mm, 5 im, Mobile Phase: Methanol Isocratic Flow Rate: 0.4 mL/min.
# [3] = Caco-2 permeability assay; details: human
# From the text: The endpoint measured is the intestinal permeability expressed as apparent permeability—Papp value. All permeability values are represented as ×10^−6 cm/sec.
# [4] = Human hepatocyte clearance; assay type: in vitro ADME; details: human hepatocytes
# Procedure, shortened: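 Cryopreserved human hepatocytes at a 2 million cell working stock mixed 1:1 with 2 μM compound working stock at 37 °C, in duplicate. Samples quenched in acetonitrile with internal standard at 0, 15, 30, 60 and 90 min, then analysed by LC-MS/MS.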
# [5] = SGF (simulated gastric fluid), 0 h
# [6] = SGF (simulated gastric fluid), 1 week
# [7] = SGF (simulated gastric fluid), 1 h
# [8] = SGF (simulated gastric fluid), 2 h
# [9] = SGF (simulated gastric fluid), 4 h
# [10] = SGF (simulated gastric fluid), 8 h
# [11] = SGF (simulated gastric fluid), 24 h
# [12] = SGF (simulated gastric fluid), 48 h
# [13] = SIF (simulated intestinal fluid), 0 h
# [14] = SIF (simulated intestinal fluid), 1 week
# [15] = SIF (simulated intestinal fluid), 1 h
# [16] = SIF (simulated intestinal fluid), 2 h
# [17] = SIF (simulated intestinal fluid), 4 h
# [18] = SIF (simulated intestinal fluid), 8 h
# [19] = SIF (simulated intestinal fluid), 24 h
# [20] = SIF (simulated intestinal fluid), 48 h
structure (smiles),measurement,setting,value
"COC(=O)[C@@H](C)NP(=O)(OC[C@H]1OC(OC(=O)c2cccnc2)[C@H](O)[C@@H]1O)Oc1ccccc1 (stereo partly drawn) [Compound 101, (3R, 4S, 5R)-3,4-dihydroxy-5-(((((1-methoxy-1-oxopropan-2-yl)amino)(phenoxy)phosphoryl)oxy)methyl)tetrahydrofuran-2-yl nicotinate]",Solid State Stability (% Purity),"[1]; 2-8° C., 0 hr",93.20%
same,Solid State Stability (% Purity),"[1]; 2-8° C., 24 hr",90.57%
same,Solid State Stability (% Purity),"[1]; 2-8° C., 48 hr",90.59%
same,Solid State Stability (% Purity),"[1]; 25° C., 0 hr",93.20%
same,Solid State Stability (% Purity),"[1]; 25° C., 24 hr",89.68%
same,Solid State Stability (% Purity),"[1]; 25° C., 48 hr",90.66%
same,Solid State Stability (% Purity),"[1]; −20° C., 0 hr",93.20%
same,Solid State Stability (% Purity),"[1]; −20° C., 24 hr",90.72%
same,Solid State Stability (% Purity),"[1]; −20° C., 48 hr",90.63%
same,% remaining,[2]; [5],90.17%
same,% remaining,[2]; [6],3.41%
same,% remaining,[2]; [7],88.8%
same,% remaining,[2]; [8],87.74%
same,% remaining,[2]; [9],83.09%
same,% remaining,[2]; [10],77.12%
same,% remaining,[2]; [11],41.98%
same,% remaining,[2]; [12],29.17%
same,% remaining,[2]; [13],91.59%
same,% remaining,[2]; [14],76.58%
same,% remaining,[2]; [15],91.12%
same,% remaining,[2]; [16],91.16%
same,% remaining,[2]; [17],90.07%
same,% remaining,[2]; [18],90.28%
same,% remaining,[2]; [19],85.29%
same,% remaining,[2]; [20],85.54%
same,% remaining,"[2]; pH 1, 0 h",88.03%
same,% remaining,"[2]; pH 1, 1 week",1.01%
same,% remaining,"[2]; pH 1, 1 h",85.91%
same,% remaining,"[2]; pH 1, 2 h",85.4%
same,% remaining,"[2]; pH 1, 4 h",81.82%
same,% remaining,"[2]; pH 1, 8 h",74.41%
same,% remaining,"[2]; pH 1, 24 h",50.26%
same,% remaining,"[2]; pH 1, 48 h",16.35%
same,% remaining,"[2]; pH 2, 0 h",88.86%
same,% remaining,"[2]; pH 2, 1 week",13.5%
same,% remaining,"[2]; pH 2, 1 h",88.82%
same,% remaining,"[2]; pH 2, 2 h",87.46%
same,% remaining,"[2]; pH 2, 4 h",85.16%
same,% remaining,"[2]; pH 2, 8 h",81.19%
same,% remaining,"[2]; pH 2, 24 h",63.31%
same,% remaining,"[2]; pH 2, 48 h",35.33%
same,% remaining,"[2]; pH 4, 0 h",82.98%
same,% remaining,"[2]; pH 4, 1 week",37.7%
same,% remaining,"[2]; pH 4, 1 h",83.96%
same,% remaining,"[2]; pH 4, 2 h",82.79%
same,% remaining,"[2]; pH 4, 4 h",81.96%
same,% remaining,"[2]; pH 4, 8 h",79.6%
same,% remaining,"[2]; pH 4, 24 h",70.75%
same,% remaining,"[2]; pH 4, 48 h",69.7%
same,% remaining,"[2]; pH 6, 0 h",88.78%
same,% remaining,"[2]; pH 6, 1 week",73.66%
same,% remaining,"[2]; pH 6, 1 h",88.01%
same,% remaining,"[2]; pH 6, 2 h",87.98%
same,% remaining,"[2]; pH 6, 4 h",87.55%
same,% remaining,"[2]; pH 6, 8 h",86.2%
same,% remaining,"[2]; pH 6, 24 h",86.09%
same,% remaining,"[2]; pH 6, 48 h",73.74%
same,% remaining,"[2]; pH 7.4, 0 h",88.58%
same,% remaining,"[2]; pH 7.4, 1 week",67.37%
same,% remaining,"[2]; pH 7.4, 1 h",88.62%
same,% remaining,"[2]; pH 7.4, 2 h",88.48%
same,% remaining,"[2]; pH 7.4, 4 h",87.24%
same,% remaining,"[2]; pH 7.4, 8 h",86.71%
same,% remaining,"[2]; pH 7.4, 24 h",86.62%
same,% remaining,"[2]; pH 7.4, 48 h",79.75%
same,% remaining,"[2]; pH 9, 0 h",90.15%
same,% remaining,"[2]; pH 9, 1 week",0%
same,% remaining,"[2]; pH 9, 1 h",80.81%
same,% remaining,"[2]; pH 9, 2 h",70.65%
same,% remaining,"[2]; pH 9, 4 h",48.75%
same,% remaining,"[2]; pH 9, 8 h",26.14%
same,% remaining,"[2]; pH 9, 24 h",4.45%
same,% remaining,"[2]; pH 9, 48 h",0%
same,Papp A→B,[3],0.2 ×10⁻⁶ cm/s
same,Papp B→A,[3],6.1 ×10⁻⁶ cm/s
same,efflux ratio,[3],39
same,recovery,"[3]; Caco-2, % Recovery A to B",86.5%
same,recovery,"[3]; Caco-2, % Recovery B to A",87.9%
same,half-life at 1 μM,"[4]; 1 μM, 0-90 min, read-out: T½",12.8 min
same,hepatocyte CLint at 1 μM,"[4]; 1 μM, read-out: Intrinsic Clearance (CL Int)",53.9 µL/min/1e6 cells
"O=C(OC[C@H]1OC(O)[C@H](O)[C@@H]1O)c1ccccn1 (stereo partly shown) [Compound 102, (3,4,5-trihydroxytetrahydrofuran-2-yl) methyl picolinate]",Solid State Stability (% Purity),"[1]; 2-8° C., 0 hr",95.28%
same,Solid State Stability (% Purity),"[1]; 2-8° C., 24 hr",95.18%
same,Solid State Stability (% Purity),"[1]; 2-8° C., 48 hr",95.45%
same,Solid State Stability (% Purity),"[1]; 25° C., 0 hr",95.60%
same,Solid State Stability (% Purity),"[1]; 25° C., 24 hr",95.55%
same,Solid State Stability (% Purity),"[1]; 25° C., 48 hr",95.23%
same,Solid State Stability (% Purity),"[1]; −20° C., 0 hr",95.26%
same,Solid State Stability (% Purity),"[1]; −20° C., 24 hr",95.27%
same,Solid State Stability (% Purity),"[1]; −20° C., 48 hr",95.28%
same,% remaining,[2]; [5],95.54%
same,% remaining,[2]; [6],91.04%
same,% remaining,[2]; [7],94.73%
same,% remaining,[2]; [8],93.68%
same,% remaining,[2]; [9],93.65%
same,% remaining,[2]; [10],93.69%
same,% remaining,[2]; [11],93.61%
same,% remaining,[2]; [12],93.58%
same,% remaining,[2]; [13],96.45%
same,% remaining,[2]; [14],84.49%
same,% remaining,[2]; [15],96.01%
same,% remaining,[2]; [16],96.02%
same,% remaining,[2]; [17],95.96%
same,% remaining,[2]; [18],95.77%
same,% remaining,[2]; [19],94.28%
same,% remaining,[2]; [20],93.75%
same,% remaining,"[2]; pH 1, 0 h",95.73%
same,% remaining,"[2]; pH 1, 1 week",95.56%
same,% remaining,"[2]; pH 1, 1 h",95.69%
same,% remaining,"[2]; pH 1, 2 h",95.64%
same,% remaining,"[2]; pH 1, 4 h",95.61%
same,% remaining,"[2]; pH 1, 8 h",95.64%
same,% remaining,"[2]; pH 1, 24 h",95.61%
same,% remaining,"[2]; pH 1, 48 h",95.64%
same,% remaining,"[2]; pH 2, 0 h",95.67%
same,% remaining,"[2]; pH 2, 1 week",95.39%
same,% remaining,"[2]; pH 2, 1 h",95.65%
same,% remaining,"[2]; pH 2, 2 h",95.66%
same,% remaining,"[2]; pH 2, 4 h",95.64%
same,% remaining,"[2]; pH 2, 8 h",95.67%
same,% remaining,"[2]; pH 2, 24 h",95.56%
same,% remaining,"[2]; pH 2, 48 h",95.54%
same,% remaining,"[2]; pH 4, 0 h",95.37%
same,% remaining,"[2]; pH 4, 1 week",94.76%
same,% remaining,"[2]; pH 4, 1 h",95.32%
same,% remaining,"[2]; pH 4, 2 h",95.27%
same,% remaining,"[2]; pH 4, 4 h",95.25%
same,% remaining,"[2]; pH 4, 8 h",95.26%
same,% remaining,"[2]; pH 4, 24 h",95.26%
same,% remaining,"[2]; pH 4, 48 h",95.05%
same,% remaining,"[2]; pH 6, 0 h",96.31%
same,% remaining,"[2]; pH 6, 1 week",94.47%
same,% remaining,"[2]; pH 6, 1 h",96.32%
same,% remaining,"[2]; pH 6, 2 h",96.26%
same,% remaining,"[2]; pH 6, 4 h",96.27%
same,% remaining,"[2]; pH 6, 8 h",96.25%
same,% remaining,"[2]; pH 6, 24 h",95.73%
same,% remaining,"[2]; pH 6, 48 h",95.66%
same,% remaining,"[2]; pH 7.4, 0 h",95.8%
same,% remaining,"[2]; pH 7.4, 1 week",61.5%
same,% remaining,"[2]; pH 7.4, 1 h",95.7%
same,% remaining,"[2]; pH 7.4, 2 h",94.95%
same,% remaining,"[2]; pH 7.4, 4 h",94.34%
same,% remaining,"[2]; pH 7.4, 8 h",93.43%
same,% remaining,"[2]; pH 7.4, 24 h",90.13%
same,% remaining,"[2]; pH 7.4, 48 h",83.6%
same,% remaining,"[2]; pH 9, 0 h",94.05%
same,% remaining,"[2]; pH 9, 1 week",0%
same,% remaining,"[2]; pH 9, 1 h",74.72%
same,% remaining,"[2]; pH 9, 2 h",56.28%
same,% remaining,"[2]; pH 9, 4 h",49.14%
same,% remaining,"[2]; pH 9, 8 h",23.34%
same,% remaining,"[2]; pH 9, 24 h",14.94%
same,% remaining,"[2]; pH 9, 48 h",0.63%
same,Papp A→B,[3],0.9 ×10⁻⁶ cm/s
same,Papp B→A,[3],0.8 ×10⁻⁶ cm/s
same,efflux ratio,[3],1
same,recovery,"[3]; Caco-2, % Recovery A to B",94.9%
same,recovery,"[3]; Caco-2, % Recovery B to A",90.7%
same,half-life at 1 μM,[4],45.7 min
same,hepatocyte CLint at 1 μM,[4],15.2 µL/min/1e6 cells
